The values below come from patent US8273760B2, “Indolo[3,2-c]quinoline compounds” (Kaohsiung Medical University, priority 2008, dated 2012).

SMILES strings stand for the structures.

The test system of data set [1] is SR. Kind of data set: In vitro anticancer assay (NCI panel), SR. Type of data set: cell-based. To be noted: Homo sapiens, leukemia. The method, then: (§1) Selected compounds were evaluated in vitro against the NCI's full panel of 60 cancer cell lines derived from nine cancer cell types, including: leukemia (CCRF-CEM, HL-60 (TB), K-562, MOLT-4, RPMI-8226, and SR); non-small cell lung cancer (A549/ATCC, EKVX, HOP-62, HOP-92, NCI-H226, NCI-H23, NCI-H322M, and NCI-H522); colon cancer (COLO 205, HCC-2998, HCT-116, HCT-15, HT29, KM12, and SW-620); CNS cancer (SF-268, SF-295, SF-539, SNB-19, SNB-75, and U251); melanoma (LOX IMVI, MALME-3M, M14, SK-MEL-2, SK-MEL-28, SK-MEL-5, UACC-62, and UACC-257); ovarian cancer (IGROV1, OVCAR-3, OVCAR-4, OVCAR-5, OVCAR-8, and SK-OV-3); renal cancer (786-0, A498, ACHN, CAKI-1, RXF 393, SN12C, TK-10, and UO-31); prostate cancer (PC-3 and DU-145); and breast cancer (MCF7, MCF7/ADR-RES, MDA-MB-231/ATCC, HS 578T, MDA-MB-435, MDA-N, and T-47D). For each compound, dose-response curves for each cell line were measured with five different drug concentrations, and the concentration causing 50% cell growth inhibition (GI50) compared with the control was calculated. The mean GI50 values of each tested compound for all the 60 tumor cell lines were also calculated.

Data set [2] relates to SNB-19. Kind of data set: In vitro anticancer assay (NCI panel), SNB-19. The class given is cell-based. To be noted: Homo sapiens; SNB-19, CNS cancer. As for the experimental part:
as §1

Data set [3] relates to MDA-MB-435. Put plainly: In vitro anticancer assay (NCI panel), MDA-MB-435. Type of data set: cell-based. To be noted: Homo sapiens; MDA-MB-435, breast cancer. The method, then:
as §1

The subject of data set [4] is DU-145. Kind of data set: In vitro anticancer assay (NCI panel), DU-145. Type of data set: cell-based. To be noted: Homo sapiens; DU-145, prostate cancer. As for the experimental part:
as §1

Data set [5] addresses telomerase (Homo sapiens, UniProt O14746). Put plainly: Telomeric Repeat Amplification Protocol (TRAP) assay, cell-free. The conditions noted are these: 0.5 μg total cell extract from H1299 human lung cancer cells, FIG. 1.
Data set [6] relates to LOX IMVI. Put plainly: In vitro anticancer assay (NCI panel), LOX IMVI. To be noted: Homo sapiens, melanoma. The class given is cell-based. The method, then:
as §1

Data set [7] deals with NCI-H460. Put plainly: In vitro anticancer assay (NCI panel), NCI-H460. The class given is cell-based. To be noted: Homo sapiens; NCI-H460, non-small cell lung cancer. The method, then: as §1
The subject of data set [8] is NCI's full panel of 60 cancer cell lines. Put plainly: In vitro anticancer assay, all cell lines of the NCI panel. To be noted: Homo sapiens, mean values of over all cell lines tested; read-out: MG MID (mean GI50). The class given is cell-based, human. As for the experimental part: as §1
In data set [9] the test system is OVCAR-8. Kind of data set: In vitro anticancer assay (NCI panel), OVCAR-8. The class given is cell-based. To be noted: Homo sapiens; OVCAR-8, ovarian cancer. As for the experimental part: as §1
In data set [10] the test system is SF-295. Put plainly: In vitro anticancer assay (NCI panel), SF-295. The conditions noted are these: Homo sapiens; SF-295, CNS cancer. Type of data set: cell-based. As for the experimental part: as §1
Data set [11] deals with A549/ATCC. Kind of data set: In vitro anticancer assay (NCI panel), A549/ATCC. Type of data set: cell-based. The conditions noted are these: Homo sapiens, non-small cell lung cancer. As for the experimental part: as §1
The subject of data set [12] is OVCAR-3. Put plainly: In vitro anticancer assay (NCI panel), OVCAR-3. The class given is cell-based. The conditions noted are these: Homo sapiens; OVCAR-3, ovarian cancer. As for the experimental part:
as §1

The subject of data set [13] is COLO 205. Put plainly: In vitro anticancer assay (NCI panel), COLO 205. The class given is cell-based. The conditions noted are these: Homo sapiens; COLO 205, colon cancer. The method, then:
as §1

Data set [14] has as its system K-562. Kind of data set: In vitro anticancer assay (NCI panel), K-562. The class given is cell-based. The conditions noted are these: Homo sapiens, K562; K-562, leukemia. The method, then:
as §1

Data set [15] deals with ACHN. Put plainly: In vitro anticancer assay (NCI panel), ACHN. Type of data set: cell-based. The conditions noted are these: Homo sapiens, renal cancer. As for the experimental part: as §1
Data set [16] has as its system UACC-62. Kind of data set: In vitro anticancer assay (NCI panel), UACC-62. The class given is cell-based. The conditions noted are these: Homo sapiens; UACC-62, melanoma. The method, then:
as §1

Data set [17] relates to HL-60 (TB). Kind of data set: In vitro anticancer assay (NCI 60 cell line panel), HL-60 (TB). The conditions noted are these: Homo sapiens, leukemia. Type of data set: cell-based. As for the experimental part: as §1
Data set [18] concerns SF-268. Put plainly: In vitro anticancer assay (NCI panel), SF-268. The class given is cell-based. To be noted: Homo sapiens; SF-268, CNS cancer. As for the experimental part: as §1
Data set [19] relates to OVCAR-5. Put plainly: In vitro anticancer assay (NCI panel), OVCAR-5. The class given is cell-based. The conditions noted are these: Homo sapiens; OVCAR-5, ovarian cancer. The method, then: as §1
In data set [20] the test system is HCT-116. Put plainly: In vitro anticancer assay (NCI panel), HCT-116. Type of data set: cell-based. To be noted: Homo sapiens; HCT-116, colon cancer. The method, then:
as §1

Data set [21] deals with 786-0. Put plainly: In vitro anticancer assay (NCI panel), 786-0. Type of data set: cell-based. To be noted: Homo sapiens; 786-0, renal cancer. As for the experimental part: as §1
The test system of data set [22] is SK-MEL-2. Put plainly: In vitro anticancer assay (NCI panel), SK-MEL-2. Type of data set: cell-based. To be noted: Homo sapiens; SK-MEL-2, melanoma. The method, then:
as §1

For data set [23], the system named is PC-3. Kind of data set: In vitro anticancer assay (NCI panel), PC-3. Type of data set: cell-based. To be noted: Homo sapiens; PC-3, prostate cancer. The method, then: as §1
The test system of data set [24] is MDA-MB-231/ATCC. Kind of data set: In vitro anticancer assay (NCI panel), MDA-MB-231/ATCC. The class given is cell-based. To be noted: Homo sapiens, breast cancer. As for the experimental part:
as §1

Data set [25] relates to SN12C. Put plainly: In vitro anticancer assay (NCI panel), SN12C. The class given is cell-based. To be noted: Homo sapiens, renal cancer. As for the experimental part: as §1
For data set [26], the system named is MCF7. Put plainly: In vitro anticancer assay (NCI panel), MCF7. Type of data set: cell-based. To be noted: Homo sapiens; MCF7, breast cancer. As for the experimental part:
as §1

The test system of data set [27] is HOP-62. Put plainly: In vitro anticancer assay (NCI panel), HOP-62. The class given is cell-based. The conditions noted are these: Homo sapiens; HOP-62, non-small cell lung cancer. The method, then:
as §1

The test system of data set [28] is HT29. Kind of data set: In vitro anticancer assay (NCI panel), HT29. Type of data set: cell-based. The conditions noted are these: Homo sapiens, HT-29; HT29, colon cancer. As for the experimental part:
as §1

Data set [29] relates to human leukemia HL-60 cells. The conditions noted are these: previous studies, read-out: GI50 (50% cell growth inhibition); cited from earlier work.

Sequence of telomerase (O14746 whole entry): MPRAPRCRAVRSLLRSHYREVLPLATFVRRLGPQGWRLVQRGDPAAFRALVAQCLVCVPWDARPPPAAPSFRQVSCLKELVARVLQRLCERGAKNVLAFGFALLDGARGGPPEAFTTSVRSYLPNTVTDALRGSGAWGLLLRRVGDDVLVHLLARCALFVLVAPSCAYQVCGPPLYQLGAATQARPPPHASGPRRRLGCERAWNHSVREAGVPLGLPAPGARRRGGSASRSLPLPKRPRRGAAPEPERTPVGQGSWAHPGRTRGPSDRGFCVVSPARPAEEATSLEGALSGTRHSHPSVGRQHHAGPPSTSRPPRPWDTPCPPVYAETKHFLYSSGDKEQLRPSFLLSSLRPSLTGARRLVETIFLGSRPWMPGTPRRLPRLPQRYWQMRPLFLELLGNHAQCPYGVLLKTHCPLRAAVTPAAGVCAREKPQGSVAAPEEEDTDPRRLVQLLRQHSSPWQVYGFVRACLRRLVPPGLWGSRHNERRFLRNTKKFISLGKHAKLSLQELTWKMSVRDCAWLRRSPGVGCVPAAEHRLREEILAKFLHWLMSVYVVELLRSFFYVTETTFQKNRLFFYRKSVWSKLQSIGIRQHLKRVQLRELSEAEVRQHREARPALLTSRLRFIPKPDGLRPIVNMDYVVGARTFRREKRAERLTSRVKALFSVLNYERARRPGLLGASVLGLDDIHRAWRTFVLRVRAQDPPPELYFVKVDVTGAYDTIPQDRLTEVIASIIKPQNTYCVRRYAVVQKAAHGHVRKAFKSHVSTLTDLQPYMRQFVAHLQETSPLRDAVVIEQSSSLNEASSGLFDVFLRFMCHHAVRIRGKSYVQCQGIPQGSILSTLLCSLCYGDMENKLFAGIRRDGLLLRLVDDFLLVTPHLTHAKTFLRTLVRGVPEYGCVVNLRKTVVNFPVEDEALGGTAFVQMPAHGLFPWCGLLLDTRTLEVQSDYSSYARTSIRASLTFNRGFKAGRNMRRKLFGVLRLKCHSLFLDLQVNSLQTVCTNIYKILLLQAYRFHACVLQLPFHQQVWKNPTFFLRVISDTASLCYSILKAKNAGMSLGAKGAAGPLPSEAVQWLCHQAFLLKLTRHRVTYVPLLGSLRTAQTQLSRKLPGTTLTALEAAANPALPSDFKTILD

As usually defined, the GI50 is the concentration giving 50% growth inhibition. One may read the melting point as the temperature of the solid-liquid transition. Turning to `Cl.c1ccc2c(c1)nc(NCCCNCCCNc1nc3ccccc3c3[nH]c4ccccc4c13)c1c3ccccc3[nH]c21` [Compound 8a, N,N-bis-[3-(11H-indolo[3,2-c]quinolin-6-yl)aminopropyl]amine hydrochloride], the melting point was in the range of 107 to 108 °C. The compound also showed a GI50 in data set [1] of 30 nM. In data set [2], this compound came in with a GI50 of 70 nM. The compound also yielded a concentration for 50% growth inhibition (GI50) in data set [3] of 850 nM. Further, growth in [4] was halved (GI50) at 130 nM. Further, the “concentration that completely inhibited telomerase activity” value in [5] was “approximately 0.02 nM”. Besides, in data set [6], it took 70 nM to inhibit growth by half (GI50). Moreover, it took 40 nM to inhibit growth in data set [7] by half (GI50). Also, the GI50 in data set [8] is 150 nM. Moreover, the concentration for 50% growth inhibition (GI50) in data set [9] was 40 nM. In data set [10], this compound yielded a GI50 of 100 nM. This compound also had a 50% growth inhibitory concentration (GI50) in data set [11] of 60 nM. Also, in [12], the GI50 stood at 520 nM. Besides, it took 180 nM to inhibit growth in [13] by half (GI50). For the same compound, growth in [14] was halved (GI50) at 40 nM. This compound came in with a GI50 in data set [15] of 60 nM. In data set [16], this compound displayed a GI50 of 220 nM. Moreover, the GI50 in [17] turned out to be 40 nM. The compound also gave a GI50 in data set [18] of 30 nM. The same compound yielded a GI50 in data set [19] of 220 nM. For the same compound, in data set [20], it took 170 nM to inhibit growth by half (GI50). In addition, the GI50 in [21] was 70 nM. The compound also returned a GI50 in [22] of 550 nM. For the same compound, halving of growth in [23] (GI50) required 360 nM. The same compound had a GI50 in data set [24] of 180 nM. This compound also registered a GI50 in data set [25] of 30 nM. In [26], this compound came in with a GI50 of 10 nM. In addition, the concentration for 50% growth inhibition (GI50) in [27] amounted to 50 nM. Further, the GI50 in [28] was found to be 50 nM.

Regarding `CN(C)CCNc1nc2ccccc2c2[nH]c3ccccc3c12` [IQDMA, N′-(11H-indolo[3,2-c]quinolin-6-yl)-N,N-dimethyl-ethane-1,2-diamine], the GI50 in [29] was 1980 nM.
